These results are taken from patent publication US20230146395A1, “Substituted Pyrimidines and Uses Thereof” (Verge Analytics, Inc., priority 2020, published 2023).

pIC50: −log10 of the molar value. Structures can show the parent of a compound that is named as a salt.

The target of the assay is T1, Full length human recombinant PIKFYVE (Homo sapiens, UniProt Q9Y2I7).
T1 construct: Full length human recombinant PIKFYVE; purchased Carna Biosciences (Kobe, Japan); host or cells: baculovirus expression system
T1 sequence (Q9Y2I7 whole entry): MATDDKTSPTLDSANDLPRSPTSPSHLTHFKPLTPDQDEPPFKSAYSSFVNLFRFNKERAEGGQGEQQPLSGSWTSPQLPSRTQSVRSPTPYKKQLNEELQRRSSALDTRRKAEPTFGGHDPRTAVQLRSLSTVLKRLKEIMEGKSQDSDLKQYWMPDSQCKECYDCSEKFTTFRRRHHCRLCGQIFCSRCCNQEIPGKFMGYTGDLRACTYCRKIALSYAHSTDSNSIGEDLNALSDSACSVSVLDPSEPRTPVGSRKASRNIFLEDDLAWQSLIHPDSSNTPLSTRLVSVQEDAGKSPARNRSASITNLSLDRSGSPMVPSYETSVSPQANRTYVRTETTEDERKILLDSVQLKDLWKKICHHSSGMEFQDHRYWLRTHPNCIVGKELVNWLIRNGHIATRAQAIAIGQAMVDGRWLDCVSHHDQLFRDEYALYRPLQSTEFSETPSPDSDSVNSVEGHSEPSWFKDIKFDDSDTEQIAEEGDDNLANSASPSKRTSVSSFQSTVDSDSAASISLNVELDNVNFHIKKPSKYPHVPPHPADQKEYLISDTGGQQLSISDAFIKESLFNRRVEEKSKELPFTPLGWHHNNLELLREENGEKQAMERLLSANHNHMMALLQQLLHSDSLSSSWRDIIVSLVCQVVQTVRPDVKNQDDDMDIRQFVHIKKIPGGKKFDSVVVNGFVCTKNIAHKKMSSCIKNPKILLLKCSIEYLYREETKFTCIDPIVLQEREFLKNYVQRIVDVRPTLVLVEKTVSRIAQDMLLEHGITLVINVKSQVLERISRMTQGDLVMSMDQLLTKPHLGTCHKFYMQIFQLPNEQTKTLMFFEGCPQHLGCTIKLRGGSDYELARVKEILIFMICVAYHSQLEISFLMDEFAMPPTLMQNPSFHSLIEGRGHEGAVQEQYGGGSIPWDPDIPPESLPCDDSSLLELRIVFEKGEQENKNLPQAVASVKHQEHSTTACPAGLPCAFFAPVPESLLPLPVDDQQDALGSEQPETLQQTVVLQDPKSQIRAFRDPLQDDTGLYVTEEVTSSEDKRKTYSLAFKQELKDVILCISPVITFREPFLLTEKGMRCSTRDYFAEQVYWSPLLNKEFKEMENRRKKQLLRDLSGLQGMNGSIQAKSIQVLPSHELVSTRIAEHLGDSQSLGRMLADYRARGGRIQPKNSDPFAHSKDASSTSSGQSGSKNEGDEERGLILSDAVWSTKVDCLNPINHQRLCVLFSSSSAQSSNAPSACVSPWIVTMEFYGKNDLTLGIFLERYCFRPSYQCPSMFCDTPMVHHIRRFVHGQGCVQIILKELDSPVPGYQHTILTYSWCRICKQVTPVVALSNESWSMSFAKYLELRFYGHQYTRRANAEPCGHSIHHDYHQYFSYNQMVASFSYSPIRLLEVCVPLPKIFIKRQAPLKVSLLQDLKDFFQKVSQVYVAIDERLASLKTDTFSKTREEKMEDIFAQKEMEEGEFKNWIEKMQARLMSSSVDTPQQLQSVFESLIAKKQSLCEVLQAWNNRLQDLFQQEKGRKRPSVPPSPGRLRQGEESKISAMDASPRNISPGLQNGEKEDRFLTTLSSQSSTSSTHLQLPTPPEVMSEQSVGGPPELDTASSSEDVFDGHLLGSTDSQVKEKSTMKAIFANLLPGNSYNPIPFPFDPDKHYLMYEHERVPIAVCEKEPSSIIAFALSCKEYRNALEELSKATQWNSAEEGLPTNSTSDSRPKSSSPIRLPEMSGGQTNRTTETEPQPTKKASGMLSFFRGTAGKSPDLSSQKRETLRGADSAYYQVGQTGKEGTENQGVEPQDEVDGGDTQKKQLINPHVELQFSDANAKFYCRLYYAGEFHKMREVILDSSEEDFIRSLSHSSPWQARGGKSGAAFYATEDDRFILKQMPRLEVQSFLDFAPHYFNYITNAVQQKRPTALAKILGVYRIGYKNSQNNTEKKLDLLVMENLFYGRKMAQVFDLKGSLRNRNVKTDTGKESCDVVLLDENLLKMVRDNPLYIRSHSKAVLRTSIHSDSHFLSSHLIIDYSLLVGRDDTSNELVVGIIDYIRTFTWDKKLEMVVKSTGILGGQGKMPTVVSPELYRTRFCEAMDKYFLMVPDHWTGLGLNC
The assay is described as follows: Inhibition of PIKfyve (microfluidic electrophoresis kinase assay, PI3P/PS substrate). Format: biochemical. To be noted: 12 concentrations. How it is done: Full length human recombinant PIKFYVE expressed in baculovirus expression system as N-terminal GST-fusion protein (265 kDa) was obtained from Carna Biosciences (Kobe, Japan). The kinase substrate was prepared by mixing and sonicating fluorescently-labeled phosphatidylinositol 3-phosphate (PI3P) with phospho-L-serine (PS) at a 1:10 ratio in 50 mM HEPES buffer pH 7.5.
The kinase reactions were assembled in 384-well plates (Greiner) in a total volume of […] as follows. Kinase protein was pre-diluted in an assay buffer comprising 25 mM HEPES, pH 7.5, 1 mM DTT, 2.5 mM MgCl2, and 2.5 mM MnCl2, and 0.005% Triton X-100, and dispensed into a 384-well plate (10 μL per well). Test compounds were serially pre-diluted in DMSO and added to the protein samples by acoustic dispensing (Labcyte Echo). The concentration of DMSO was equalized to 1% in all samples. All test compounds were tested at 12 concentrations. Apilimod was used as a reference compound and was tested in identical manner in each assay plate. Control samples (0%-inhibition, in the absence of inhibitor, DMSO only) and 100%-inhibition (in the absence of enzyme) were assembled in replicates of four and were used to calculate %-inhibition in the presence of compounds. The reactions were initiated by addition of 10 μL of 2×PI3P/PS substrate supplemented with ATP. The final concentration of enzyme was 2 nM, the final concentration of ATP was […], and the final concentration of PI3P/PS substrate was 1 μM (PI3P). The kinase reactions were allowed to proceed for 3 h at room temperature. Following incubation, the reactions were quenched by addition of […] of termination buffer (100 mM HEPES, pH 7.5, 0.01% Triton X-100, 20 mM EDTA). Terminated plates were analyzed on a microfluidic electrophoresis instrument (Caliper LabChip® 3000, Caliper Life Sciences/Perkin Elmer). The change in the relative fluorescence intensity of the PI(3)P substrate and PI(3,5)P product peaks was measured. The activity in each test sample was determined as the product to sum ratio (PSR): P/(S+P), where P is the peak height of the product, and S is the peak height of the substrate. Percent inhibition (Pinh) was determined using the following equation:
Pinh=(PSR0% inh−PSRcompound)/(PSR0% inh−PSR100% inh)*100
in which PSRcompound is the product/sum ratio in the presence of compound, PSR0% inh is the product/sum ratio in the absence of compound, and the PSR100% inh is the product/sum ratio in the absence of the enzyme.
Take `CN1CCC(NC(=O)c2cc3nc(-n4cc(-c5ccccc5)cn4)nc(N4CCOCC4)c3o2)CC1` [Compound 157, N-(1-methylpiperidin-4-yl)-4-morpholino-2-(4-phenyl-1H-pyrazol-1-yl)furo[3,2-d]pyrimidine-6-carboxamide]: the negative-log IC50 (pIC50) was 7.05. In the case of `COCCN(C)Cc1cc2nc(Nc3cc(-c4ccccc4)n[nH]3)nc(N3CCOCC3)c2o1` [Compound 17] it was 6.52; in that of `CN1CCC(NC(=O)c2cc3nc(-n4cc(-c5ccccc5)cn4)nc(N4CCOCC4)c3o2)C1` (stereo not drawn) [Compound 170, N-(1-methylpyrrolidin-3-yl)-4-morpholino-2-(4-phenylpyrazol-1-yl)furo[3,2-d]pyrimidine-6-carboxamide], 7.34. In the case of `CONC(=O)c1cc2nc(-n3ccc(-c4cccc(C)c4)n3)nc(N3CCOCC3)c2o1` [Compound 99, N-methoxy-4-morpholino-2-(3-(m-tolyl)-1H-pyrazol-1-yl)fur[3,2-d]pyrimidine-6-carboxamide] it was 7.11; in that of `FC(F)(F)c1cc(Nc2nc(N3CCOCC3)c3oc(-c4ccncc4)cc3n2)[nH]n1` [Compound 72, 4-morpholino-6-(pyridin-4-yl)-N-(5-(trifluoromethyl)-1H-pyrazol-3-yl)furo[3,2-d]pyrimidin-2-amine, hydrogen chloride], 6.26. On to `Cc1cc(-c2cc3nc(-n4ccc(-c5ccccc5)n4)nc(N4CCOCC4)c3o2)[nH]n1` [Compound 162, 6-(3-methyl-1H-pyrazol-5-yl)-4-morpholino-2-(3-phenylpyrazol-1-yl)furo[3,2-d]pyrimidine], for which the pIC50 was 7.75.

With `Brc1cccc(-c2ccn(-c3nc(N4CCOCC4)c4oc(-c5ccccn5)cc4n3)n2)c1` [Compound 186, 2-[3-(3-bromophenyl)pyrazol-1-yl]-4-morpholino-6-(2-pyridyl)furo[3,2-d]pyrimidine], the pIC50 was 8.22. In the case of `Cc1cccc(-c2cc(Nc3nc(N4CCOCC4)c4oc(C5CCN(C)CC5)cc4n3)[nH]n2)c1` [Compound 33] it was 7.23; in that of `c1ccc(-c2cc(Nc3nc(N4CCOCC4)c4oc(CN5CCCC5)cc4n3)[nH]n2)cc1` [Compound 16], 6.00; in that of `FC(F)(F)Oc1cccc(-c2cc(Nc3nc(N4CCOCC4)c4oc(-c5ccncc5)cc4n3)[nH]n2)c1` [Compound 25, 4-morpholino-6-(4-pyridyl)-N-[5-[3-(trifluoromethoxy)phenyl]-1H-pyrazol-3-yl]furo[3,2-d]pyrimidin-2-amine, hydrogen chloride], 6.02.

Take `c1ccc(-c2cc(Nc3nc(N4CCOCC4)c4oc(-c5ccncc5)cc4n3)[nH]n2)nc1` [Compound 19, 4-morpholino-6-(4-pyridyl)-N-[5-(2-pyridyl)-1H-pyrazol-3-yl]furo[3,2-d]pyrimidin-2-amine, hydrogen chloride]: the pIC50 is 7.19. Regarding `CN(CC1CC1)C(=O)c1cc2nc(Nc3cc(-c4ccccc4)[nH]n3)nc(N3CCOCC3)c2o1` [Compound 62, N-(cyclopropylmethyl)-N-methyl-4-morpholino-2-[(5-phenyl-1H-pyrazol-3-yl)amino]furo[3,2-d]pyrimidine-6-carboxamide, hydrogen chloride], the pIC50 was 7.14.

In the case of `Cc1cc(-c2oc3c(N4CCOCC4)nc(-n4ccc(-c5ccccc5)n4)nc3c2C)[nH]n1` [Compound 182, 7-methyl-6-(3-methyl-1H-pyrazol-5-yl)-4-morpholino-2-(3-phenylpyrazol-1-yl)furo[3,2-d]pyrimidine], the pIC50 is 7.07. In the case of `Cc1cccc(-c2ccn(-c3nc(N4CCOCC4)c4oc(-c5cnn(C)c5)cc4n3)n2)c1` [Compound 205, 6-(1-methylpyrazol-4-yl)-4-morpholino-2-[3-(m-tolyl)pyrazol-1-yl]furo[3,2-d]pyrimidine], the pIC50 was 8.89. As for `Cc1cccc(-c2ccn(-c3nc(N4CCOCC4)c4oc(-c5cn[nH]c5)cc4n3)n2)c1` [Compound 219, 4-morpholino-2-[3-(m-tolyl)pyrazol-1-yl]-6-(1H-pyrazol-4-yl)furo[3,2-d]pyrimidine], the pIC50 is 9.40.

With `Cc1cccc(-c2cnn(-c3nc(N4CCOCC4)c4oc(C(=O)NCCS(=O)(=O)N(C)C)cc4n3)c2)c1` [Compound 128, N-(2-(N,N-dimethylsulfamoyl)ethyl)-4-morpholino-2-(4-(m-tolyl)-1H-pyrazol-1-yl)furo[3,2-d]pyrimidine-6-carboxamide], the pIC50 is 7.18. In the case of `O=C(NC1CCOC1)c1cc2nc(-n3cc(-c4ccccc4)cn3)nc(N3CCOCC3)c2o1` (stereo not drawn) [Compound 172, 4-morpholino-2-(4-phenylpyrazol-1-yl)-N-tetrahydrofuran-3-yl-furo[3,2-d]pyrimidine-6-carboxamide] it was 7.42; in that of `CN1CCCC(c2cc3nc(Nc4cc(-c5ccccc5)n[nH]4)nc(N4CCOCC4)c3o2)C1` (stereo not drawn) [Compound 35, 6-(1-methylpiperidin-3-yl)-4-morpholino-N-(3-phenyl-1H-pyrazol-5-yl)furo[3,2-d]pyrimidin-2-amine hydrochloride], 6.69; in that of `O=C(NC1CC1)c1cc2nc(-n3cc(-c4ccccc4)cn3)nc(N3CCOCC3)c2o1` [Compound 165, N-cyclopropyl-4-morpholino-2-(4-phenylpyrazol-1-yl)furo[3,2-d]pyrimidine-6-carboxamide], 7.16. With `c1ccc(-c2ccn(-c3nc(N4CCOCC4)c4oc(-c5cccnc5)cc4n3)n2)cc1` [Compound 156, 4-morpholino-2-(3-phenyl-1H-pyrazol-1-yl)-6-(pyridin-3-yl)furo[3,2-d]pyrimidine], the pIC50 is 6.82.

With `Cc1cccc(-c2ccn(-c3nc(N4CCOCC4)c4oc(-c5cc(C)ns5)cc4n3)n2)c1` [Compound 210, 6-(3-methylisothiazol-5-yl)-4-morpholino-2-[3-(m-tolyl)pyrazol-1-yl]furo[3,2-d]pyrimidine], the negative-log IC50 (pIC50) is 8.42. `CCNC(=O)c1cc2nc(-n3ccc(-c4ccccc4)n3)nc(N3CCOCC3)c2o1` [Compound 152, N-ethyl-4-morpholino-2-(3-phenyl-1H-pyrazol-1-yl)furo[3,2-d]pyrimidine-6-carboxamide]: the pIC50 was 6.51. For the compound `c1ccc(-c2ccn(-c3nc(N4CCOCC4)c4oc(-c5ncco5)cc4n3)n2)cc1` [Compound 214, 4-morpholino-6-oxazol-2-yl-2-(3-phenylpyrazol-1-yl)furo[3,2-d]pyrimidine], the pIC50 is 7.36. In the case of `c1ccn2nc(Nc3nc(N4CCOCC4)c4oc(-c5ccncc5)cc4n3)cc2c1` [Compound 51, 4-morpholino-N-pyrazolo[1,5-a]pyridin-2-yl-6-(4-pyridyl)furo[3,2-d]pyrimidin-2-amine, hydrogen chloride] it was 7.06; in that of `Cc1cc(-c2cc3nc(-n4ccc(-c5ccccc5)n4)nc(N4CCOCC4)c3o2)sn1` [Compound 211, 6-(3-methylisothiazol-5-yl)-4-morpholino-2-(3-phenylpyrazol-1-yl)furo[3,2-d]pyrimidine], 7.68; in that of `Cc1cc(Nc2nc(N3CCOCC3)c3oc(-c4ccncc4)cc3n2)[nH]n1` [Compound 5, N-(5-methyl-1H-pyrazol-3-yl)-4-morpholino-6-(4-pyridyl)furo[3,2-d]pyrimidin-2-amine, hydrogen chloride], 6.55. In the case of `CNC(=O)c1cc2nc(Nc3cc(-c4ccsc4)n[nH]3)nc(N3CCOCC3)c2o1` [Compound 86, N-methyl-4-morpholino-2-((5-(thiophen-3-yl)-1H-pyrazol-3-yl)amino)furo[3,2-d]pyrimidine-6-carboxamide, hydrogen chloride] it was 7.21. To `c1cc(-c2cc(Nc3nc(N4CCOCC4)c4occc4n3)[nH]n2)ccn1` [Compound 10, 4-morpholino-N-(3-(pyridin-4-yl)-1H-pyrazol-5-yl)furo[3,2-d]pyrimidin-2-amine hydrochloride] belongs 5.21; to `Clc1cc2nc(Nc3cc(-c4ccccc4)n[nH]3)nc(N3CCOCC3)c2o1` [Compound 11, 6-chloro-4-morpholino-N-(5-phenyl-1H-pyrazol-3-yl)furo[3,2-d]pyrimidin-2-amine hydrochloride], 7.26. For the compound `COc1cccc(-c2ccn(-c3nc(N4CCOCC4)c4oc(-c5ccccn5)cc4n3)n2)c1` [Compound 199, 2-[3-(3-methoxyphenyl)pyrazol-1-yl]-4-morpholino-6-(2-pyridyl)furo[3,2-d]pyrimidine], the pIC50 is 7.43.
